Experimental data reported in the supplement of paper PMC7806825.
± gives the standard deviation of the averaged measurements.

System: McpC ligand-binding domain (Salmonella Typhimurium SL1344)
Test: protein melting temperature (Tm) in presence of compound (degrees C); higher = more thermal stabilisation (possible ligand binding)
Details: compound stock concentration: 10-20 mM, 2 uL in 10 uL reaction

protein melting temperature (Biolog plate: PM03B)	protein melting temperature (Biolog plate: PM01)	Compound	further results
44.6		N[C@@H]1C(O)O[C@H](CO)[C@@H](O)[C@@H]1O (stereo partly drawn) [D-Mannosamine]	
	44.2	OC[C@H]1OC(O)[C@@H](O)[C@@H](O)[C@@H]1O (stereo partly drawn) [D-Mannose]	
	44.7	OC[C@H]1O[C@H](OC[C@H]2OC(O)[C@H](O)[C@@H](O)[C@@H]2O)[C@H](O)[C@@H](O)[C@H]1O (stereo partly drawn) [D-Melibiose]	
	45	OCC1(O)OC[C@@H](O)[C@@H](O)[C@H]1O (stereo partly drawn) [D-Psicose]	
	44.2	O[C@@H]1[C@H](O)[C@H](O)CO[C@H]1O [D-Ribose]	
	43.9	OC[C@H]1O[C@H](O[C@H]2O[C@H](CO)[C@@H](O)[C@H](O)[C@H]2O)[C@H](O)[C@@H](O)[C@@H]1O [D-Trehalose]	
45.7	44.9	NC(=O)[C@H]1O[C@@H](O)[C@H](O)[C@@H](O)[C@@H]1O [Glucuronamide]	
44.7		Nc1nc2[nH]cnc2c(=O)[nH]1 [Guanine]	protein melting temperature (Biolog plate: PM05): 44.4
45.5		Nc1nc2c(ncn2[C@@H]2O[C@H](CO)[C@@H](O)[C@H]2O)c(=O)[nH]1 [Guanosine]	protein melting temperature (Biolog plate: PM05): 44.5
44.6	44.4	O=c1[nH]cnc2c1ncn2[C@@H]1O[C@H](CO)[C@@H](O)[C@H]1O [Inosine]	protein melting temperature (Biolog plate: PM05): 44.6
	44.5	O[C@@H]1[C@@H](O)[C@@H](O)CO[C@H]1O [L-Arabinose]	

Second part, the compound before the results:

Compound	protein melting temperature (Biolog plate: PM03B)	protein melting temperature (Biolog plate: PM01)	further results
OC[C@H]1O[C@@](CO)(O[C@H]2O[C@H](CO)[C@@H](O)[C@H](O)[C@H]2O)[C@@H](O[C@H]2O[C@H](CO)[C@@H](O)[C@H](O)[C@H]2O)[C@@H]1O [D-Melezitose]			protein melting temperature (Biolog plate: PM02A): 44.5
CSCC[C@@H](N)C(=O)O [D-Methionine]			protein melting temperature (Biolog plate: PM04A): 43.7
CC(C)(CO)[C@@H](O)C(=O)NCCC(=O)O [D-Pantothenic acid]			protein melting temperature (Biolog plate: PM05): 43.7
OC[C@H]1O[C@H](OC[C@H]2O[C@H](O[C@]3(CO)O[C@H](CO)[C@@H](O)[C@@H]3O)[C@H](O)[C@@H](O)[C@@H]2O)[C@H](O)[C@@H](O)[C@H]1O [D-Raffinose]			protein melting temperature (Biolog plate: PM02A): 44.4
O=C1O[C@H](CO)[C@@H](O)[C@H]1O [D-Ribono-1,4-Lactone]			protein melting temperature (Biolog plate: PM02A): 44.4
O=C(O)[C@@H](O)[C@@H](O)[C@H](O)[C@@H](O)C(=O)O [D-Saccharic acid]		44.4	
OC[C@@H](O)[C@@H](O)[C@H](O)[C@@H](O)CO [D-Sorbitol]		45	
O=C(CO)[C@@H](O)[C@@H](O)[C@H](O)CO [D-Tagatose]			protein melting temperature (Biolog plate: PM02A): 44
C[C@H](O)[C@@H](N)C(=O)O [D-Threonine]		44	
CC(C)[C@@H](N)C(=O)O [D-Valine]	44.7		
CC(=O)N(O)CCCCCNC(=O)CCC(=O)N(O)CCCCCNC(=O)CCC(=O)N(O)CCCCCN [Deferoxamine]			protein melting temperature (Biolog plate: PM05): 44.4
OC[C@H]1OC(O[C@H]2[C@H](O)[C@@H](O)C(O[C@H]3[C@H](O)[C@@H](O)[C@@H](O)O[C@@H]3CO)O[C@@H]2CO)[C@H](O)[C@@H](O)[C@@H]1O (stereo partly drawn) [Dextrin]			protein melting temperature (Biolog plate: PM02A): 44
OP(O)(=S)S [Dithiophosphate]			protein melting temperature (Biolog plate: PM04A): 43.6 ± 0.59
OC[C@@H](O)[C@H](O)[C@H](O)[C@@H](O)CO [Dulcitol]		44.6	
NCCO [Ethanolamine]	44.4		
CCN [Ethylamine]	44.7		
Nc1nc(=O)c2nc(CNc3ccc(C(=O)N[C@@H](CCC(=O)O)C(=O)O)cc3)cnc2[nH]1 [Folic acid]			protein melting temperature (Biolog plate: PM05): 43.8
NC=O [Formamide]	45.6		
O=C(O)/C=C/C(=O)O [Fumaric acid]		44.6	
O=C[C@H](O)[C@@H](O)[C@H](O)[C@H](O)CO[C@@H]1O[C@H](CO)[C@@H](O)[C@H](O)[C@H]1O [Gentiobiose]			protein melting temperature (Biolog plate: PM02A): 44.5
N[C@@H](CCC(=O)N[C@@H](CS)C(=O)NCC(=O)O)C(=O)O [Glutathione]			protein melting temperature (Biolog plate: PM04A): 43.7; protein melting temperature (Biolog plate: PM05): 43.6
NCC(=O)N[C@@H](CC(N)=O)C(=O)O [Gly-Asn]	44.5		
NCC(=O)N[C@@H](CC(=O)O)C(=O)O [Gly-Asp]		44.4	
NCC(=O)N[C@@H](CCC(N)=O)C(=O)O [Gly-Gln]	45.2		

Compound	protein melting temperature (Biolog plate: PM03B)	protein melting temperature (Biolog plate: PM01)	further results
NCC(=O)N[C@@H](CCC(=O)O)C(=O)O [Gly-Glu]	45.1	44.9	
CSCC[C@H](NC(=O)CN)C(=O)O [Gly-Met]	45.2		protein melting temperature (Biolog plate: PM04A): 43.8
NCC(=O)N1CCC[C@H]1C(=O)O [Gly-Pro]		44.2	
NCC(=O)O [Glycine]	44.8		protein melting temperature (Biolog plate: PM02A): 44.4; protein melting temperature (Biolog plate: PM05): 43.9
OC[C@H]1O[C@H](OC[C@H]2O[C@H](O[C@H]3[C@H](O)[C@@H](O)[C@@H](O)O[C@@H]3CO)[C@H](O)[C@@H](O)[C@@H]2O[C@H]2O[C@H](CO)[C@@H](O)[C@H](O)[C@H]2O)[C@H](O)[C@@H](O)[C@@H]1O [Glycogen]			protein melting temperature (Biolog plate: PM02A): 44.8
Nc1nc2c(ncn2[C@@H]2O[C@H](CO)[C@@H](O)[C@H]2OP(=O)(O)O)c(=O)[nH]1 [Guanosine 2`-Monophosphate]			protein melting temperature (Biolog plate: PM04A): 44
Nc1nc2c(ncn2[C@@H]2O[C@H](CO)[C@@H](OP(=O)(O)O)[C@H]2O)c(=O)[nH]1 [Guanosine 3`-Monophosphate]			protein melting temperature (Biolog plate: PM04A): 43.9
Nc1nc2c(ncn2[C@@H]2O[C@H](COP(=O)(O)O)[C@@H](O)[C@H]2O)c(=O)[nH]1 [Guanosine 5`-Monophosphate]			protein melting temperature (Biolog plate: PM04A): 43.9
NCCc1c[nH]cn1 [Histamine]	45.1		
O=C(O)[C@@H]1C[C@@H](O)CN1 [Hydroxy-L-Proline]			protein melting temperature (Biolog plate: PM02A): 44.2; protein melting temperature (Biolog plate: PM05): 43.8
O=PO [Hypophosphite]			protein melting temperature (Biolog plate: PM04A): 44.1
NCCS(=O)O [Hypotaurine]			protein melting temperature (Biolog plate: PM04A): 44.5
O=c1[nH]cnc2nc[nH]c12 [Hypoxanthine]			protein melting temperature (Biolog plate: PM05): 44
C[C@H](N)C(=O)O [L-Alanine]	45.6	44.8	protein melting temperature (Biolog plate: PM05): 44.9
OC[C@H](O)C(O)[C@@H](O)CO [L-Arabitol]			protein melting temperature (Biolog plate: PM02A): 43.8
N=C(N)NCCC[C@H](N)C(=O)O [L-Arginine]	45.4		protein melting temperature (Biolog plate: PM02A): 44.2; protein melting temperature (Biolog plate: PM05): 44.6
NC(=O)C[C@H](N)C(=O)O [L-Asparagine]	45.7	44.4	protein melting temperature (Biolog plate: PM05): 44.5
N[C@@H](CC(=O)O)C(=O)O [L-Aspartic acid]	45.4	44.5	protein melting temperature (Biolog plate: PM05): 44.2
NC(=O)NCCC[C@H](N)C(=O)O [L-Citrulline]	44.8		protein melting temperature (Biolog plate: PM05): 43.8
N[C@@H](CS(=O)(=O)O)C(=O)O [L-Cysteic acid]			protein melting temperature (Biolog plate: PM04A): 43.1
N[C@@H](CS(=O)O)C(=O)O [L-Cysteine Sulfinic acid]			protein melting temperature (Biolog plate: PM04A): 43
N[C@@H](CSCSC[C@H](N)C(=O)O)C(=O)O [L-Djenkolic acid]			protein melting temperature (Biolog plate: PM04A): 44.6
C[C@H](O)[C@@H](O)[C@@H](O)[C@H](O)C=O [L-Fucose]		44.7	
